Measurements taken from ChEMBL document CHEMBL5532658 (Eur J Med Chem, 2024).
Active and inactive are the calls of the source. The rule behind the calls is not given here.

Key:
[1] = Clearance in CD1 mouse at 1 mg/kg, iv measured upto 24 hrs by LC-MS/MS analysis; assay type: ADME, organism-based; conditions: in vivo
[2] = system: MDA-MB-453; assay: Downregulation of Rb protein phosphorylation at Ser811 in human MDA-MB-453 cells incubated for 24 hrs by Western blot analysis; assay type: functional, cell-based; conditions: dose 37-333 nM
[3] = Half life in CD1 mouse at 1 mg/kg, iv measured upto 24 hrs by LC-MS/MS analysis; assay type: ADME, organism-based; conditions: in vivo
[4] = Metabolic stability in mouse liver microsomes assessed as half-life; assay type: ADME, Microsome
[5] = target: Cyclin-dependent kinase 7 (Homo sapiens) (UniProt P50613); assay: Inhibition of CDK7 in human MDA-MB-453 cells assessed as decrease in Thr160 phosphorylation of CDK2 at 37 to 333 nM incubated for 24 hrs by Western blot substrate; assay type: cell-based; conditions: dose 37-333 nM
Cyclin-dependent kinase 7 (Homo sapiens), sequence (P50613 whole entry): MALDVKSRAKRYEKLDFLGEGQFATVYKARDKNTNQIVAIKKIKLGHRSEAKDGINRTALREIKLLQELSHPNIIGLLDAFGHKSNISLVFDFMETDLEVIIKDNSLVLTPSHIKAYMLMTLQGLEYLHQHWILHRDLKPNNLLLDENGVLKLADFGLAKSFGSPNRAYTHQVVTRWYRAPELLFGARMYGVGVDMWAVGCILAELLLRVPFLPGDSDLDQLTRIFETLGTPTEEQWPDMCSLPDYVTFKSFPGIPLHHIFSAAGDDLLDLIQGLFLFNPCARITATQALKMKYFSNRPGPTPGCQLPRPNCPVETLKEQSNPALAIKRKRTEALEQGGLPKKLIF

[6] = Toxicity in Balb/c mouse xenografted with human MDA-MB-231 cells assessed as change in body weight at 5 to 10 mg/kg po administered once daily for 21 days and measured every three days; assay type: organism-based; conditions: in vivo, 504 h, dose 5-10 mg/kg, time 21 day
[7] = system: MDA-MB-231; assay: Inhibition of RNA polymerase 2 C-terminal domain phosphorylation at Ser7 in heptad repeat in human MDA-MB-231 cells at 37 to 333 nM incubated for 24 hrs by Western blotting analysis; assay type: cell-based; conditions: dose 37-333 nM
[8] = Metabolic stability in human liver microsomes assessed as half-life; assay type: ADME, Microsome
[9] = system: MDA-MB-453; assay: Downregulation of Rb protein phosphorylation at Ser807 in human MDA-MB-453 cells incubated for 24 hrs by Western blot analysis; assay type: functional, cell-based; conditions: dose 37-333 nM
[10] = system: MDA-MB-231; assay: Antitumor activity against human MDA-MB-231 cells xenografted in Balb/c mouse assessed as tumor regression at 5 to 10 mg/kg, po administered once daily and measured at day 15; assay type: functional, organism-based; conditions: dose 5-10 mg/kg
[11] = system: MDA-MB-231; assay: Downregulation of Rb protein phosphorylation at Ser795 in human MDA-MB-231 cells incubated for 24 hrs by Western blot analysis; assay type: functional, cell-based; conditions: dose 37-333 nM
[12] = target: T1, Mitogen-activated protein kinase 15 (Homo sapiens) (UniProt Q8TD08); assay: Inhibition of ERK7 (unknown origin) at 1 uM by discoverX kinomescan assay
T1 sequence (whole entry): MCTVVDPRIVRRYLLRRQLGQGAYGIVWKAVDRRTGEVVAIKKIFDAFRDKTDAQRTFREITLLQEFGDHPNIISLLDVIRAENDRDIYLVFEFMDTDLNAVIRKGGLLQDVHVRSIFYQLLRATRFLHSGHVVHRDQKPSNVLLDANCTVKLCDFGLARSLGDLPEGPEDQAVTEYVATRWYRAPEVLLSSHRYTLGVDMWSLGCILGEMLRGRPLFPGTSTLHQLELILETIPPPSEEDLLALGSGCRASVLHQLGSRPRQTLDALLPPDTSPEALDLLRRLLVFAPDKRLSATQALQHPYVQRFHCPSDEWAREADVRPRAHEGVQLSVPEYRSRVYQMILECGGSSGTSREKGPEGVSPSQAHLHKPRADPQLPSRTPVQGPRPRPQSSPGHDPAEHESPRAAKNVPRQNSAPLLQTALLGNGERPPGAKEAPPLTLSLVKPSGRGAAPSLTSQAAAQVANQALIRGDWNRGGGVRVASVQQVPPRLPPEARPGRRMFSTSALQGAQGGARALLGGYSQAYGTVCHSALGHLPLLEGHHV

[13] = system: MDA-MB-453; assay: Downregulation of Rb protein phosphorylation at Thr826 in human MDA-MB-453 cells incubated for 24 hrs by Western blot analysis; assay type: functional, cell-based; conditions: dose 37-333 nM
[14] = target: Cyclin-dependent kinase 18 (Homo sapiens) (UniProt Q07002); assay: Inhibition of CDK18 (unknown origin) at 1 uM by discoverX kinomescan assay
Cyclin-dependent kinase 18 (Homo sapiens), sequence (Q07002 whole entry): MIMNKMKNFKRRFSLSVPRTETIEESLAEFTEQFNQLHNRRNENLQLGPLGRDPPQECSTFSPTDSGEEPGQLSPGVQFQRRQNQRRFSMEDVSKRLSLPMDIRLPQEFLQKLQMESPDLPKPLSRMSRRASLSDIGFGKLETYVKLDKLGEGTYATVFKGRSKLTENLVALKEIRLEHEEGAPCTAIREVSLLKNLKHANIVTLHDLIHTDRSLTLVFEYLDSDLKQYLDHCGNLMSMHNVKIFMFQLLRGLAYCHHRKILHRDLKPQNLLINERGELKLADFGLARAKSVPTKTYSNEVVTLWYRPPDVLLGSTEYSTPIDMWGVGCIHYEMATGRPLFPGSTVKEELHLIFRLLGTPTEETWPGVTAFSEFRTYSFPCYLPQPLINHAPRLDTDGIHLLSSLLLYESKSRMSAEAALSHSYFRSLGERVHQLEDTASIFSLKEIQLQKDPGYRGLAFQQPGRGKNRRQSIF

[15] = system: MDA-MB-231; assay: Induction of cell cycle arrest in human MDA-MB-231 cells assessed as G0/G1 phase arrest at 12.3 to 1000 nM incubated for 24 hrs by PI staining based flow cytometry analysis; assay type: functional; conditions: dose 12.3-1000 nM
[16] = target: T2, Dual specificity mitogen-activated protein kinase kinase 5 (Homo sapiens) (UniProt Q13163); assay: Inhibition of MAP2K5 (unknown origin) assessed as remaining activity at 1 uM by discoverX kinomescan assay relative to control
T2 sequence (whole entry): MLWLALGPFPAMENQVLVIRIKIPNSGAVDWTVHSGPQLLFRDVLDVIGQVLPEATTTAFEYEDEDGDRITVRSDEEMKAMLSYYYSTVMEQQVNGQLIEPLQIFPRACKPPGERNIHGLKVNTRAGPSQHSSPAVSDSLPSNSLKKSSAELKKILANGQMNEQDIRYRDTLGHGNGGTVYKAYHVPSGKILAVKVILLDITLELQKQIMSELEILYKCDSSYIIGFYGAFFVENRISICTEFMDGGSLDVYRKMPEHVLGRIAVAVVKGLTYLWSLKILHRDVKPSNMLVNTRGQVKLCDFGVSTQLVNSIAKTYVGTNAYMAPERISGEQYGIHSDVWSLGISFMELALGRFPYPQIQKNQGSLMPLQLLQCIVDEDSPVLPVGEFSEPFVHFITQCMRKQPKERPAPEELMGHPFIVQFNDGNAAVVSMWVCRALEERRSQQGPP

[17] = system: MDA-MB-231; assay: Downregulation of Rb protein phosphorylation at Ser807 in human MDA-MB-231 cells incubated for 24 hrs by Western blot analysis; assay type: functional, cell-based; conditions: dose 37-333 nM
[18] = system: MDA-MB-231; assay: Downregulation of Rb protein phosphorylation at Ser811 in human MDA-MB-231 cells incubated for 24 hrs by Western blot analysis; assay type: functional, cell-based; conditions: dose 37-333 nM
[19] = system: MDA-MB-231; assay: Antiproliferative activity against human MDA-MB-231 cells incubated for 120 hrs by CCK-8 assay; assay type: functional, cell-based; conditions: MDA-MB-231, 120 h
[20] = system: MDA-MB-453; assay: Antiproliferative activity against human MDA-MB-453 cells incubated for 120 hrs by CCK-8 assay; assay type: functional, cell-based; conditions: MDA-MB-453, 120 h
[21] = target: Cyclin-dependent kinase 17 (Homo sapiens) (UniProt Q00537); assay: Inhibition of CDK17 (unknown origin) at 1 uM by discoverX kinomescan assay
Cyclin-dependent kinase 17 (Homo sapiens), sequence (Q00537 whole entry, looked up): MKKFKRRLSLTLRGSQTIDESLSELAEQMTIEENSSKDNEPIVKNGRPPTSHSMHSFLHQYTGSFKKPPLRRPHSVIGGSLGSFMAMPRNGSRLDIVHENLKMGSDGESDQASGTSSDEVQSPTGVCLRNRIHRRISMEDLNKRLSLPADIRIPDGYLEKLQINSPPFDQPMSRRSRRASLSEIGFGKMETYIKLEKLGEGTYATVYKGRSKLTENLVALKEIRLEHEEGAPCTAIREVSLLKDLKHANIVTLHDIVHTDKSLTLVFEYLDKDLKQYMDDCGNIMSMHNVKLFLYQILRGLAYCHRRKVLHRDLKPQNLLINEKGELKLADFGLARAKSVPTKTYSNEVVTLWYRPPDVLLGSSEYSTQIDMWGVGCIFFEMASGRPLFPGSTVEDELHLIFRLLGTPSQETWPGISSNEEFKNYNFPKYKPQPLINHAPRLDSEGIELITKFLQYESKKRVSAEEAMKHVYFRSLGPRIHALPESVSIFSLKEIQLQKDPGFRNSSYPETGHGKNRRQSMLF

[22] = Cmax in CD1 mouse at 10 mg/kg, po measured upto 24 hrs by LC-MS/MS analysis; assay type: ADME, organism-based; conditions: in vivo
[23] = system: MDA-MB-231; assay: Downregulation of Rb protein phosphorylation at Ser780 in human MDA-MB-231 cells incubated for 24 hrs by Western blot analysis; assay type: functional, cell-based; conditions: dose 37-333 nM
[24] = system: MDA-MB-453; assay: Downregulation of Rb protein phosphorylation at Ser608 in human MDA-MB-453 cells incubated for 24 hrs by Western blot analysis; assay type: functional, cell-based; conditions: dose 37-333 nM
[25] = Volume of distribution at steady state in CD1 mouse at 1 mg/kg, iv measured upto 24 hrs by LC-MS/MS analysis; assay type: ADME, organism-based; conditions: in vivo, read-out: Vdss
[26] = target: Cyclin-dependent kinase 16 (Homo sapiens) (UniProt Q00536); assay: Inhibition of CDK16 (unknown origin) at 1 uM by discoverX kinomescan assay
Cyclin-dependent kinase 16 (Homo sapiens), sequence (Q00536 whole entry): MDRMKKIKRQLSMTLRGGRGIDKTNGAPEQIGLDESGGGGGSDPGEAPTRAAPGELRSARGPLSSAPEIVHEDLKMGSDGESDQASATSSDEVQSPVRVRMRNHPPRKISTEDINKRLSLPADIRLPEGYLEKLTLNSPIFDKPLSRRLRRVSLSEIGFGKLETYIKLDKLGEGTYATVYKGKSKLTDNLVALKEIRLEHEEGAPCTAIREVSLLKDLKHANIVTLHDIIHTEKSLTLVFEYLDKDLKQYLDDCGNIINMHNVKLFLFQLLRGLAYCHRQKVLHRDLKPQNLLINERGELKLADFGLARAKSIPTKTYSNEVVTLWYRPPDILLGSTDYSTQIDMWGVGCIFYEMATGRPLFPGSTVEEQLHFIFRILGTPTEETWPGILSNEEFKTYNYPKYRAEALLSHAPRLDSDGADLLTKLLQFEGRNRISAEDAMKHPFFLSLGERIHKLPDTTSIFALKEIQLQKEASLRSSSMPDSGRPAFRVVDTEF

[27] = target: Cyclin-dependent kinase 13 (Homo sapiens) (UniProt Q14004); assay: Inhibition of CDK13 (unknown origin) at 1 uM by discoverX kinomescan assay
Cyclin-dependent kinase 13 (Homo sapiens), sequence (Q14004 whole entry, looked up): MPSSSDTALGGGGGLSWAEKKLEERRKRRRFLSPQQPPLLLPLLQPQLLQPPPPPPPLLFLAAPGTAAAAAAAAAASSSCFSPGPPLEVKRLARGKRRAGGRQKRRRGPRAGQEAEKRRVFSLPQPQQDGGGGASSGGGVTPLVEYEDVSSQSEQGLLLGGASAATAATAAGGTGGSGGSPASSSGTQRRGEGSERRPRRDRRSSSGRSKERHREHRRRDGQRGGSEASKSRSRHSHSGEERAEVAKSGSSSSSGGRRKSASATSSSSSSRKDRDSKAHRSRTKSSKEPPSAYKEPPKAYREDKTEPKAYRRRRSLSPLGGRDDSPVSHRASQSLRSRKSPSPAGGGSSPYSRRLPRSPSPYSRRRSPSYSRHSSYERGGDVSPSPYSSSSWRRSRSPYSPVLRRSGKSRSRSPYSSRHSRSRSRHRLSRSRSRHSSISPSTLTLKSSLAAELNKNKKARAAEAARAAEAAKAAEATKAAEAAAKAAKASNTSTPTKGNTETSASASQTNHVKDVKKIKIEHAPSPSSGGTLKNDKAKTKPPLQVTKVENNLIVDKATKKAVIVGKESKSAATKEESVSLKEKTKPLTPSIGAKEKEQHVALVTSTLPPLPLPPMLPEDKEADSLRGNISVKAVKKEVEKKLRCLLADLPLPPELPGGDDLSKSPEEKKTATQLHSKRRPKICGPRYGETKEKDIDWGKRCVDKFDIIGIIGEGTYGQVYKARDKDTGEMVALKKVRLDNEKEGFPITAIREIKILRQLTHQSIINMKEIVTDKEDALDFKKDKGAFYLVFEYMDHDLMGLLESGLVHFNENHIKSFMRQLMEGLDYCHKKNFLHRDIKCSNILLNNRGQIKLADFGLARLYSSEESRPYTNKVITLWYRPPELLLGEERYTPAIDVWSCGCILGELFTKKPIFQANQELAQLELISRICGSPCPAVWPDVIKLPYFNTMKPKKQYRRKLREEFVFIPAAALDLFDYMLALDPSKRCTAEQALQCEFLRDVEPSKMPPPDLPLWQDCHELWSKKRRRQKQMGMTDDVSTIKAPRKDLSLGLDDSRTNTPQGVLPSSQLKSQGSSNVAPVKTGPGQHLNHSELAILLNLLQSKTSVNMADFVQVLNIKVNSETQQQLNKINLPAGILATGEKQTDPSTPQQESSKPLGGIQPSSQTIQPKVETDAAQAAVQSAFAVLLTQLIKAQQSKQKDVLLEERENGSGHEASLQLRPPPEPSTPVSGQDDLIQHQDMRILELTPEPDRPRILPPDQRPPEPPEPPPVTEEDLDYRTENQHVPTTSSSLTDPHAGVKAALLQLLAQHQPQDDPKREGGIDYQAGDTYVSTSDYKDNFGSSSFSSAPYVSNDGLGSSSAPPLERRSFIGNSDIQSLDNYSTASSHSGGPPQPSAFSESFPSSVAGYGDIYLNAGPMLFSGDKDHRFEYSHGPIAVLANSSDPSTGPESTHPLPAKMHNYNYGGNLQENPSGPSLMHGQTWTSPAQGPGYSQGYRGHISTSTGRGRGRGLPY

[28] = target: T3, Dual specificity mitogen-activated protein kinase kinase 5 (Homo sapiens, UniProt Q13163); assay: Inhibition of MAP2K5 (unknown origin) by discoverX kinomescan assay
T3 sequence (Q13163 whole entry): T2 sequence (whole entry)

Structure (SMILES): CP(C)(=O)c1c(C#N)ccc2c(-c3nc(N[C@@H]4CNC[C@@H](F)C4)nc4ccsc34)c[nH]c12
- clearance [1]: 68.3 mL/min/kg
- Activity [2]: Dose-Dependent Effect
- half-life [3]: 1.9 h
- half-life [4]: 0.85 h
- inhibition [5]: Active
- Activity [6]: Non-Toxic
- inhibition [7]: Active
- half-life [8]: 1.2 h
- Activity [9]: Dose-Dependent Effect
- Activity [10]: Active
- Activity [11]: Dose-Dependent Effect
- inhibition [12]: inactive
- Activity [13]: Dose-Dependent Effect
- inhibition [14]: inactive
- Activity [15]: Active
- Activity [16]: < 1%
- Activity [17]: Dose-Dependent Effect
- Activity [18]: Dose-Dependent Effect
- EC50 [19]: 320 nM
- EC50 [20]: 150 nM
- inhibition [21]: inactive
- Cmax [22]: 117 ng/mL
- Activity [23]: Dose-Dependent Effect
- Activity [24]: Dose-Dependent Effect
- Vd [25]: 4.6 L/kg
- inhibition [26]: inactive
- inhibition [27]: inactive
- IC50 [28]: 170 nM
